# Measurements published in ChEMBL document CHEMBL1201862, “PubChem BioAssay data set” (2004).
# The source made the active and inactive calls.
# How the values were obtained:
# [1] = HeLa cell viability loss – 24 h, dry powder, set 2, cytotoxicity control, dose response (AID 651774); assay type: functional, cell-based
# [2] = potency of ADAM10 substrate cleavage blockers – biochemical, QFRET, dose response (AID 743254);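 note: ADAM10 enzyme with the DM2 quenched FRET peptide as substrate; EDANS fluorescence gain as the protease cuts the substrate; inhibitor potency against ADAM10 proteolytic activity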
# [3] = viability of PTEN-deleted HCT116 cells – cell-based, HCT116 PTEN knockout, dose response (AID 1047); assay type: functional;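 note: HCT116 colon tumor cells with PTEN knocked out; cells exposed to compound for 60 hours before readout; potency for loss of cell viability measured by luminescence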
# [4] = viability of HCT116 lacking mutant beta-catenin – cell-based, human colon tumor, dose response (AID 1045); assay type: functional;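 note: HCT116 colon tumor cells with beta catenin knocked out; cells exposed to compound for 60 hours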
# [5] = biological target: Disintegrin and metalloproteinase domain-containing protein 17 (Homo sapiens, UniProt P78536); assay: inhibition of ADAM17 substrate cleavage – biochemical, quenched FRET substrate, counter-screen for ADAM10 exosite inhibitor project, dose response (AID 743253)
# Chain of Disintegrin and metalloproteinase domain-containing protein 17 (P78536 whole entry, the tested form may be a part): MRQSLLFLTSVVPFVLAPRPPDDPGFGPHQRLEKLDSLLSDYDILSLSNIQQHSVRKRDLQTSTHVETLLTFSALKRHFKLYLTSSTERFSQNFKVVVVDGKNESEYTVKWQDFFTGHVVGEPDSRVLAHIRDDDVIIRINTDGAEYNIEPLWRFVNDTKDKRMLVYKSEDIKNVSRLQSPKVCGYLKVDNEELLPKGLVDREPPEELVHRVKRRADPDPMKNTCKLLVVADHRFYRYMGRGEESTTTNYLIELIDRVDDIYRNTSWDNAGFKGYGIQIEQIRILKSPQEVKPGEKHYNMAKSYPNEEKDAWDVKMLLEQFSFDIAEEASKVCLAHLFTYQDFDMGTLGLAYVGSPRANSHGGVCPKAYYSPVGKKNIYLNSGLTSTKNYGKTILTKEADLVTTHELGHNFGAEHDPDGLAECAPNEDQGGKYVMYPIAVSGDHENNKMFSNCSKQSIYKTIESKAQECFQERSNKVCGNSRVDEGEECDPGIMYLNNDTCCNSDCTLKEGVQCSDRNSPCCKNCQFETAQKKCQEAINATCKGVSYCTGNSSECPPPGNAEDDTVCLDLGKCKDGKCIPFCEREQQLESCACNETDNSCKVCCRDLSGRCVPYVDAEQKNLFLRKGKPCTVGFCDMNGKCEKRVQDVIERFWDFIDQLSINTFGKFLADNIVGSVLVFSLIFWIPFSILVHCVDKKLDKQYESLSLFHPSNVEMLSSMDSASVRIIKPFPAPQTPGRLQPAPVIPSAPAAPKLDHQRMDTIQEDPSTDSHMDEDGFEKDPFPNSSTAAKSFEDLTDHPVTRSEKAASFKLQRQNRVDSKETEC
# [6] = Luminescence Cell-Based Dose Retest to Confirm Inhibitors of Cancer Stem Cells. [Related pubchem assays (depositor defined):AID2717, AID2721]; assay type: functional; conditions: Homo sapiens
# Cytochrome P450 2C9 = Cytochrome P450 2C9 (Homo sapiens, UniProt P11712)
# Chain of Cytochrome P450 2C9 (P11712 whole entry): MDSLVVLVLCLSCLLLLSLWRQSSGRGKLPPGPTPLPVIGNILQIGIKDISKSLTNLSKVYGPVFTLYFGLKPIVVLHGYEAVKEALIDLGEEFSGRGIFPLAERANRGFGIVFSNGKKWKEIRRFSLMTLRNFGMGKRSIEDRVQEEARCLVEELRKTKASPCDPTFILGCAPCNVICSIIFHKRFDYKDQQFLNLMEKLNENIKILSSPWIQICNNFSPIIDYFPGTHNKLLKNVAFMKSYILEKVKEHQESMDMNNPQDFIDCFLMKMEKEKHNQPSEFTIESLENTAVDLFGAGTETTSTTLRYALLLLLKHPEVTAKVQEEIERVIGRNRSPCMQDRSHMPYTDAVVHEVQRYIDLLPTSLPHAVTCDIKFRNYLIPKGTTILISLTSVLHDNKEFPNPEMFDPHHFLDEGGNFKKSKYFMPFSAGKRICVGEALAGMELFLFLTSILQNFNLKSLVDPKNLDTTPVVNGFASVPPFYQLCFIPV
# [7] = biological target: T1, Short transient receptor potential channel 4 (Mus musculus, UniProt Q9QUQ5); assay: block of DAMGO-driven TRPC4 calcium entry – cell-based, HEK293 TRPC4/mu-opioid, Fluo-4 calcium, dose response (AID 434942); assay type: functional;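 note: potency of inhibitors blocking the TRPC4 calcium response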
# T1 sequence (Q9QUQ5 whole entry): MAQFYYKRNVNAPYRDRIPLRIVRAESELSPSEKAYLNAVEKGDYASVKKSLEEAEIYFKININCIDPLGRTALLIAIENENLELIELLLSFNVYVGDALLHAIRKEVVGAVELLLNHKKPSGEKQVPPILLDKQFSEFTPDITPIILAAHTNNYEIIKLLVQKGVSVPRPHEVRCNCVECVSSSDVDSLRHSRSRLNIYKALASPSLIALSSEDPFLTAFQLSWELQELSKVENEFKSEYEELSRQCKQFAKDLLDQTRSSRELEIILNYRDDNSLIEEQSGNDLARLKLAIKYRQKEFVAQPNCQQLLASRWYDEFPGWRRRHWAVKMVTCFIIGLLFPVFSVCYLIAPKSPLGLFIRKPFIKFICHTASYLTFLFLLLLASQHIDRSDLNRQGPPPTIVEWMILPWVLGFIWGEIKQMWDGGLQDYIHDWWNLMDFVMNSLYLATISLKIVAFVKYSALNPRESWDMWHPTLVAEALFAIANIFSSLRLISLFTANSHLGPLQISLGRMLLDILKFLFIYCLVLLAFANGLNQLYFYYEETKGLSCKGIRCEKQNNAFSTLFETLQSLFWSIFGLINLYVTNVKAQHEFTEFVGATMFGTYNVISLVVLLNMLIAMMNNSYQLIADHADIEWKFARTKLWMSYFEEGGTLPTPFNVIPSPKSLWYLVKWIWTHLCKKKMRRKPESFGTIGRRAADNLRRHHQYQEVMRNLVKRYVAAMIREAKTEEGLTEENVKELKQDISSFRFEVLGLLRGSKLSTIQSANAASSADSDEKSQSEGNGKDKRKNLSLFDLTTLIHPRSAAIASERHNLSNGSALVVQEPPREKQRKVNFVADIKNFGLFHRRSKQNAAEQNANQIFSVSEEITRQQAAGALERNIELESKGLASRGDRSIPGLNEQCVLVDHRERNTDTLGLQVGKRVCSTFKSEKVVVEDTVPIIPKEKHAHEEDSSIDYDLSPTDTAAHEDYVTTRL
# [8] = NIH3T3 cell viability loss – ATP luminescence, mouse fibroblasts, counter-screen, dose response (AID 2010); assay type: functional, cell-based;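 note: cells exposed to compound for about 90 hours before reading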
# [9] = Trypanosoma cruzi growth suppression in host cells – NIH3T3 host cells, beta-gal luminescence, confirmation (AID 2044); assay type: functional, cell-based;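 note: intracellular parasites grown in NIH/3T3 mouse fibroblasts as host cells; luminescent beta-galactosidase reporter signal from transgenic T. cruzi replicating inside host cells; inhibitors lower the luminescence signal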
# [10] = biological target: T2, DNA repair and recombination protein RAD54-like (Homo sapiens, UniProt Q92698); assay: RAD54 Holliday junction migration blockers – biochemical, fluorescence, cherry-picked samples, dose series, confirmation (AID 651657); assay type: functional
# T2 sequence (Q92698 whole entry): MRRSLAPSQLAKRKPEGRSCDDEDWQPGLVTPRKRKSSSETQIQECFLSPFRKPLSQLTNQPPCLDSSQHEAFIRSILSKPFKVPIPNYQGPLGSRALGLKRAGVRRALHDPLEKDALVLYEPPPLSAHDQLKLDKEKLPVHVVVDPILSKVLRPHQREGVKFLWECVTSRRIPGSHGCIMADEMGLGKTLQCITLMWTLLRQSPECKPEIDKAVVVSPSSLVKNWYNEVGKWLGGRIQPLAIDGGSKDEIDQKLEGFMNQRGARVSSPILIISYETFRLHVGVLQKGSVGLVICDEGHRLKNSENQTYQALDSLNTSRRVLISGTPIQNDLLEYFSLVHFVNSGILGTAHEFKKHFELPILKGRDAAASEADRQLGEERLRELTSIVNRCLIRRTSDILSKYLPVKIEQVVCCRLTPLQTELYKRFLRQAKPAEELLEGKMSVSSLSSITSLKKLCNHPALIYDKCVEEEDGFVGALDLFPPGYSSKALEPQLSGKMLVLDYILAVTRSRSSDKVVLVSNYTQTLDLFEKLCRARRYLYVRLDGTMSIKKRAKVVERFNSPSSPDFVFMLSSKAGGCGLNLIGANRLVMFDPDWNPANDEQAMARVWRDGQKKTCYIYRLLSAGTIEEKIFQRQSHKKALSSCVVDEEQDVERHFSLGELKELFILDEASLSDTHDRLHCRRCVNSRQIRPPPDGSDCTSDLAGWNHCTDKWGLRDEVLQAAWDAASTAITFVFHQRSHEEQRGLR
# [11] = biological target: DNA repair protein RAD52 homolog (Homo sapiens, UniProt P43351); assay type: functional, biochemical
# Chain of DNA repair protein RAD52 homolog (P43351 whole entry): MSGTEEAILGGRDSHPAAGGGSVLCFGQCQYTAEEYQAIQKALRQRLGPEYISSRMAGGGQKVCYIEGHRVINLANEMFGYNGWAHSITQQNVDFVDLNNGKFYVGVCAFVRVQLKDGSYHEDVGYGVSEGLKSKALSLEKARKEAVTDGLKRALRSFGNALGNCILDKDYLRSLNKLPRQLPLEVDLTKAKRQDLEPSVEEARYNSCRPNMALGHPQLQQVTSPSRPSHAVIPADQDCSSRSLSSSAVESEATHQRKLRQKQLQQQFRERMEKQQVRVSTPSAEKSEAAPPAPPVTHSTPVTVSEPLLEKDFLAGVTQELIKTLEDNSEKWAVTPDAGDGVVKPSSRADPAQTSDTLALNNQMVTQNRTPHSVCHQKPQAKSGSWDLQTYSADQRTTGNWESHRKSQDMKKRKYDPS
# Albumin = Albumin (Bos taurus, UniProt P02769); assay: Counterscreen for inhibitors of T-cell receptor (TCR)-CD3 interaction: Fluorescence-based biochemical high throughput dose response assay to identify inhibitors of T-cell receptor (TCR)-CD3 interaction using a TAMRA-labeled BSA probe.; assay type: functional
# Chain of Albumin (P02769 whole entry): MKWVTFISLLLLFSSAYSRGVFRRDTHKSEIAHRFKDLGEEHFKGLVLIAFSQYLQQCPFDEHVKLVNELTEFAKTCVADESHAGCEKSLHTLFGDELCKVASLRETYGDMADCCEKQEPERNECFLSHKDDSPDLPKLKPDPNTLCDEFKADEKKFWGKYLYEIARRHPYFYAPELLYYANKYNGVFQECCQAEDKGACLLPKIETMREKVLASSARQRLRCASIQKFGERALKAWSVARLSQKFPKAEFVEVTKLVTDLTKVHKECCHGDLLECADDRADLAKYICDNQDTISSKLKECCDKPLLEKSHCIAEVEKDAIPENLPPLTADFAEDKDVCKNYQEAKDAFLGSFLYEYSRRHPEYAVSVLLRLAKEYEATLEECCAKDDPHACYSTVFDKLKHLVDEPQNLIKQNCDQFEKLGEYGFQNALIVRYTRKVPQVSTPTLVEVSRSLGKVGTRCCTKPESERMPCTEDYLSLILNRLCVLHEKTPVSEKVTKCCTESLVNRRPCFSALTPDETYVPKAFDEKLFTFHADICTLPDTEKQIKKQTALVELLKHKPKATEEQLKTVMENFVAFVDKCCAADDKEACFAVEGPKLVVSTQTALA
# [12] = viability loss in HEK293 cells – cell-based, plate reader, cherry-picked samples, cytotoxicity control, dose response (AID 743446); assay type: functional
# [13] = toxicity toward HepG2 liver cells – cell-based, plate reader, cherry-pick, antagonist series, cytotoxicity control, dose response (AID 743416); assay type: functional
# [14] = blockade of melanocortin 4 receptor signaling – cell-based, plate reader, cherry pick, counter-screen for LGR2 antagonist project, dose response (AID 743444); assay type: functional;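 note: transfected HEK 293 cells stimulated with alpha-MSH peptide; potency of inhibitors of the alpha-MSH evoked signal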
# [15] = A549 cell cytotoxicity, dose response, cytotoxicity control, plate reader, cherry-pick, antagonist series (AID 743412); assay type: functional, cell-based
# [16] = blockers of bursicon-stimulated LGR2 cAMP reporter – cell-based, HEK293, CRE-luciferase reporter, cherry pick, set 2, dose response (AID 743343); assay type: functional;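 note: transfected cells were stimulated with diluted bursicon conditioned medium after compound addition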
# [17] = reduced cellular PGC1a acetyl-lysine signal – cell-based, cherry-picked samples, dose response (AID 720514); assay type: functional;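 note: potency may reflect raised or lowered acetylation signal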
# [18] = general mammalian cell viability loss – inhibitor set, cherry-pick, set 2, cytotoxicity control for miR-122 modulator project, dose response (AID 720697); assay type: functional, cell-based
# [19] = activation of miR-122 Renilla sensor silencing – cell-based, Huh7 psiCHECK-miR122, Renilla luciferase, cherry-picked, dose response (AID 651956); assay type: functional;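 note: huh7 hepatoma cells stably carrying a psiCHECK-2 miR-122 sensor plasmid; renilla luciferase signal reporting endogenous miR-122 activity after 48 h compound exposure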
# [20] = Dd2 malaria parasite growth inhibition potency – SYBR Green, dry powder samples, dose response (AID 1159566); assay type: functional, cell-based;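 note: potency for growth inhibition with lower SYBR green DNA signal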
# [21] = intracellular Trypanosoma cruzi inhibitors in host cells – cell-based, plate reader, cherry-pick samples, set 3, dose response (AID 651818); assay type: functional;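 note: compounds incubated with infected cells for about four days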
# [22] = growth inhibition of yeast DHODH-expressing 3D7 parasites – SYBR Green, dry powder samples, dose response (AID 1159570); assay type: functional, cell-based;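 note: parasite growth measured after 72 hours of compound exposure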
# [23] = growth inhibition of PfATP4-mutant resistant parasites – NITD609-resistant line, SYBR Green, dry powder, dose response (AID 1159571); assay type: functional, cell-based;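 note: parasites synchronized at ring stage by sorbitol before testing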
# [24] = P. falciparum Dd2 growth inhibitors, dose response, SYBR Green, cherry-picked samples (AID 1159567); assay type: functional, cell-based
# [25] = toxicity to human hepatoma HepG2 cells – cell-based, cherry-picked samples, cytotoxicity control, dose response (AID 1159577); assay type: functional
# [26] = toxicity to human HepG2 hepatoma cells – cell-based, plate reader, dry powder samples, cytotoxicity control, dose response (AID 1159569); assay type: functional;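 note: inhibitor potency with signal falling toward the positive control level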
# [27] = HEK293 Cytotoxicity Assay Measured in Cell-Based System Using Plate Reader - 7071-01_Inhibitor_Dose_CherryPick_Activity_Set2.; assay type: functional
# HEK293 = assay: viability loss in HEK293T cells – cell-based, ATP luminescence, cherry-pick samples, cytotoxicity control, dose response (AID 687005); assay type: functional; conditions: Homo sapiens;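 note: cells exposed to compound for 48 hours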
# [28] = A2780 cell killing – plate reader, dry powder samples, cytotoxicity control, dose response (AID 743046); assay type: functional, cell-based
# [29] = OVCAR-3 cell viability loss – plate reader, dry powder samples, PAX8 inhibitor project, dose response (AID 743044); assay type: functional, cell-based
# [30] = OVCAR8 cell viability loss – plate reader, dry powder samples, PAX8 project, dose response (AID 743197); assay type: functional, cell-based; conditions: OVCAR-8
# [31] = IGROV1 cell killing – plate reader, dry powder samples, PAX8 inhibitor project, dose response (AID 743043); assay type: functional, cell-based; conditions: IGROV-1
# Paired box protein Pax-8 = Paired box protein Pax-8 (Homo sapiens, UniProt Q06710); assay: PAX8 transcriptional activity inhibition in RMG-I – RMG-I cells, luciferase, cherry-pick, dose response (AID 687027); assay type: functional, cell-based;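 note: luciferase reporter driven by Pax8 target thyroperoxidase promoter measured by SteadyGlo luminescence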
# Chain of Paired box protein Pax-8 (Q06710 whole entry): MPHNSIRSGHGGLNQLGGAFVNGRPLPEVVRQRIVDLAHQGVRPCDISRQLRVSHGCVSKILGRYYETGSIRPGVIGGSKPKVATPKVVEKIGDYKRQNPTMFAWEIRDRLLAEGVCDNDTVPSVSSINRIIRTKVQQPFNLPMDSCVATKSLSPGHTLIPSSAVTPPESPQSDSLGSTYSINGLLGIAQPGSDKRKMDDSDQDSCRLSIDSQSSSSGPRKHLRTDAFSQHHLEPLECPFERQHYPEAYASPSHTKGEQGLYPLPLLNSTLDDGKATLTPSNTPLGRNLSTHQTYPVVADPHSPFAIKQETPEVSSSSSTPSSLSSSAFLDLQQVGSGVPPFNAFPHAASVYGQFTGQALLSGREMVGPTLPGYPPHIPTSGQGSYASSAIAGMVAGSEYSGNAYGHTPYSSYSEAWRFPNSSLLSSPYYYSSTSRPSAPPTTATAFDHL
# [32] = viability loss in HEK293 kidney cells – cell-based, cherry-picks, set 5, cytotoxicity control, dose response (AID 1053117); assay type: functional
smiles,measurement,setting,value
CCn1nnnc1NCc1cccn1C,AC50,[1],31.1 µM (active)
C=C(C)COc1ccc(-c2[nH]nc(C)c2-c2ccc(OC)cc2)c(O)c1,IC50,[2],9.09 µM (active)
same,EC50,[3],17.7 µM (active)
same,EC50,[4],18 µM (active)
same,IC50,[5],> 69.6 µM (inactive)
same,AC50,[6],3.41 µM (active)
same,AC50,Cytochrome P450 2C9,25.1 µM (inconclusive)
CCn1nnnc1NCc1ccc(N2CCCC2)cc1,AC50,[1],> 70 µM (inactive)
COc1ccc(Nc2nc(NCC3CCCO3)c3ccccc3n2)c(OC)c1 (stereo not drawn),EC50,[7],0.376 µM (active)
same,EC50,[8],> 30 µM (not active)
same,EC50,[9],0.465 µM (active)
same,AC50,[10],57.9 µM (active)
same,AC50,[11],13.4 µM (active)
Cc1ccc(N2C(=O)/C(=C\NNC(=O)C3COc4ccccc4O3)c3ccccc3C2=O)cc1 (stereo not drawn),IC50,Albumin,> 94.1 µM (inactive)
COc1ccc2nc(NC(=O)c3ccco3)sc2c1,AC50,[12],> 52 µM (inactive)
same,AC50,[13],> 52 µM (inactive)
same,AC50,[14],9.96 µM (active)
same,AC50,[15],> 52 µM (inactive)
same,AC50,[16],6.48 µM (active)
FC(F)(F)c1cccc(NC(S)=NCC2COc3ccccc3O2)c1 (stereo not drawn),IC50,[2],16.8 µM (inactive)
same,IC50,[5],> 69.5 µM (inactive)
CCN(CC(=O)Nc1ccccc1C(F)(F)F)C(=O)CCSc1ccc(F)cc1,AC50,[17],27 µM (active)
Cc1cc(C)c(-c2cc(NC(=O)COC(=O)c3ccc(NC(=O)CC#N)cc3)n(-c3ccccc3)n2)cc1C,IC50,Albumin,> 94.1 µM (inactive)
CCC(=O)N1[C@H](CO)[C@H](c2ccccc2)[C@H]1CN(C(C)C)S(C)(=O)=O,AC50,[18],0.525 µM (active)
same,AC50,[19],35.4 µM (active)
C[C@H](CO)N1C[C@H](C)[C@H](CN(C)Cc2ccc(C(F)(F)F)cc2)Oc2c(NC(=O)c3nc4ccccc4s3)cccc2C1=O,AC50,[20],0.823 µM (active)
same,AC50,[21],0.94 µM (active)
same,AC50,[22],3.74 µM (active)
same,AC50,[23],1.69 µM (active)
same,AC50,[24],2.71 µM (active)
same,AC50,[25],> 39 µM (inactive)
same,AC50,[26],46.2 µM (active)
O=C(C[C@@H]1CC[C@@H]2[C@H](COC[C@H](O)CN2S(=O)(=O)c2ccc(Oc3ccccc3)cc2)O1)NC1CCC1,AC50,[27],> 52 µM (inactive)
same,AC50,HEK293,> 52 µM (inactive)
C[C@@H]1CCCCO[C@H](CN(C)C(=O)C2CCCCC2)[C@@H](C)CN([C@@H](C)CO)C(=O)c2cc(NC(=O)Nc3ccc(F)cc3)ccc2O1,AC50,[28],48.1 µM (active)
same,AC50,[29],38.4 µM (active)
same,AC50,[30],69.9 µM (active)
same,AC50,[31],63.4 µM (active)
same,AC50,Paired box protein Pax-8,4.07 µM (active)
C[C@H]1CN([C@@H](C)CO)C(=O)c2cc(NS(=O)(=O)c3ccc(F)cc3)ccc2O[C@@H]1CN(C)S(=O)(=O)c1ccccc1,AC50,[27],> 52 µM (inactive)
same,AC50,HEK293,> 52 µM (inactive)
CCCNC(=O)N(C)C[C@H]1Oc2cc(C#CCC(C)C)ccc2S(=O)(=O)N([C@@H](C)CO)C[C@H]1C,AC50,[17],26.5 µM (active)
O=S(=O)(c1ccccc1F)N1CC[C@H]2[C@H](CO)Nc3ccc(-c4cccc(F)c4)cc3[C@H]21,AC50,[32],46.2 µM (active)
N#C[C@@H]1[C@@H](c2ccc(C3=CCCCC3)cc2)[C@H](CO)N1C(=O)NC1CCCC1,AC50,[20],1.46 µM (active)
same,AC50,[22],3.06 µM (active)
same,AC50,[23],2.61 µM (active)
same,AC50,[24],2.28 µM (active)
same,AC50,[26],35.6 µM (active)
